Laboratory results reported in PubChem BioAssay AID2060896 (Molecular Pharmacology Branch, DTP, NCI, 2025).

System: 941728-121-R-J1-PDC complex spheroid viability
Experiment: Anticancer human tumor 941728-121-R-J1-PDC patient-derived lung adenocarcinoma cell line growth inhibition [RAS]
Conditions: for IC50: curve of first compound; for viability, T/C: stronger effect = lower value
How it was run: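 Tumour cells grown as complex spheroids with HUVEC endothelial cells and mesenchymal stem cells, treated with RAS pathway inhibitor combinations. Each agent spans half-log steps from near clinical Cmax, or 10 microM where Cmax is unknown.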

[1] = second compound 0.000949 µM, first compound 0.0316 µM
[2] = second compound 0.000949 µM, first compound 0.1 µM
[3] = second compound 0.000949 µM, first compound 0.316 µM
[4] = second compound 0.000949 µM, first compound 1 µM
[5] = second compound 0.003 µM, first compound 0.0316 µM
[6] = second compound 0.003 µM, first compound 0.1 µM
[7] = second compound 0.003 µM, first compound 0.316 µM
[8] = second compound 0.003 µM, first compound 1 µM
[9] = second compound 0.00949 µM, first compound 0.0316 µM
[10] = second compound 0.00949 µM, first compound 0.1 µM
[11] = second compound 0.00949 µM, first compound 0.316 µM
[12] = second compound 0.00949 µM, first compound 1 µM
[13] = second compound 0.03 µM, first compound 0.0316 µM
[14] = second compound 0.03 µM, first compound 0.1 µM
[15] = second compound 0.03 µM, first compound 0.316 µM
[16] = second compound 0.03 µM, first compound 1 µM
[17] = second compound 0.0949 µM, first compound 0.0316 µM
[18] = second compound 0.0949 µM, first compound 0.1 µM
[19] = second compound 0.0949 µM, first compound 0.316 µM
[20] = second compound 0.0949 µM, first compound 1 µM
[21] = second compound 0.3 µM, first compound 0.0316 µM
[22] = second compound 0.3 µM, first compound 0.1 µM
[23] = second compound 0.3 µM, first compound 0.316 µM
[24] = second compound 0.3 µM, first compound 1 µM
[25] = second compound 0.000949 µM, first compound 3.16 µM
[26] = second compound 0.000949 µM, first compound 10 µM
[27] = second compound 0.003 µM, first compound 3.16 µM
[28] = second compound 0.003 µM, first compound 10 µM
[29] = second compound 0.00949 µM, first compound 3.16 µM
[30] = second compound 0.00949 µM, first compound 10 µM
[31] = second compound 0.03 µM, first compound 3.16 µM
[32] = second compound 0.03 µM, first compound 10 µM
[33] = second compound 0.0949 µM, first compound 3.16 µM
[34] = second compound 0.0949 µM, first compound 10 µM
[35] = second compound 0.3 µM, first compound 3.16 µM
[36] = second compound 0.3 µM, first compound 10 µM
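Also: spheroids exposed to compounds for 7 days before readout.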
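For viability, T/C in this document: 100% = DMSO vehicle control viability.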

For `CCN1CCN(Cc2ccc(Nc3ncc(F)c(-c4cc(F)c5nc(C)n(C(C)C)c5c4)n3)nc2)CC1` + CCn1c(-c2cccnc2C(C)OC)c2c3cc(ccc31)N1CCOC(CC(NC(=O)C(C(C)C)N(C)C(=O)C3(F)CCN(C(=O)C#CC(C)(C)N(C)C)CC3)C(=O)N3CCCC(N3)C(=O)OCC(C)(C)C2)C1, the IC50 (second compound 0.000949 µM) was under 3.16 nM, the IC50 (second compound 0.003 µM) was under 3.16 nM and the IC50 (second compound 0.00949 µM) was under 3.16 nM. It also gave an IC50 (second compound 0.03 µM) of under 3.16 nM, an IC50 (second compound 0.0949 µM) of under 3.16 nM and an IC50 (second compound 0.3 µM) of under 3.16 nM. The viability, T/C (second compound 0.000949 µM, first compound 0.00316 µM) was 22.2%, the viability, T/C (second compound 0.000949 µM, first compound 0.01 µM) was 23.4% and the viability, T/C [1] was 16.8%. The viability, T/C [2] was 16.1%, the viability, T/C [3] was 16.6% and the viability, T/C [4] was 12.2%. The viability, T/C (second compound 0.003 µM, first compound 0.00316 µM) was 22.9%, the viability, T/C (second compound 0.003 µM, first compound 0.01 µM) was 19.3% and the viability, T/C [5] was 17.4%. For the same molecule, the viability, T/C [6] was 19.3%, the viability, T/C [7] was 17.3% and the viability, T/C [8] was 11.3%. It also gave a viability, T/C (second compound 0.00949 µM, first compound 0.00316 µM) of 21.3%, a viability, T/C (second compound 0.00949 µM, first compound 0.01 µM) of 21.9% and a viability, T/C [9] of 19.8%. For the same molecule, the viability, T/C [10] was 17.7%, the viability, T/C [11] was 15.8% and the viability, T/C [12] was 12.9%. The viability, T/C (second compound 0.03 µM, first compound 0.00316 µM) was 24.5%, the viability, T/C (second compound 0.03 µM, first compound 0.01 µM) was 21.8% and the viability, T/C [13] was 18%. For the same molecule, the viability, T/C [14] was 19.2%, the viability, T/C [15] was 13.6% and the viability, T/C [16] was 17.5%. It also gave a viability, T/C (second compound 0.0949 µM, first compound 0.00316 µM) of 21.9%, a viability, T/C (second compound 0.0949 µM, first compound 0.01 µM) of 23.3% and a viability, T/C [17] of 19.8%. It also gave a viability, T/C [18] of 16.3%, a viability, T/C [19] of 11.7% and a viability, T/C [20] of 15.8%. It also gave a viability, T/C (second compound 0.3 µM, first compound 0.00316 µM) of 21.2%, a viability, T/C (second compound 0.3 µM, first compound 0.01 µM) of 21.9% and a viability, T/C [21] of 21.3%. For the same molecule, the viability, T/C [22] was 16.3%, the viability, T/C [23] was 16% and the viability, T/C [24] was 17.9%.

For `C[C@@H](NC(=O)c1ncnc(N)c1Cl)c1ncc(C(=O)Nc2cc(C(F)(F)F)c(Cl)cn2)s1` + CCn1c(-c2cccnc2C(C)OC)c2c3cc(ccc31)N1CCOC(CC(NC(=O)C(C(C)C)N(C)C(=O)C3(F)CCN(C(=O)C#CC(C)(C)N(C)C)CC3)C(=O)N3CCCC(N3)C(=O)OCC(C)(C)C2)C1, the IC50 (second compound 0.000949 µM) was under 31.6 nM, the IC50 (second compound 0.003 µM) was under 31.6 nM and the IC50 (second compound 0.00949 µM) was under 31.6 nM. It also gave an IC50 (second compound 0.03 µM) of under 31.6 nM, an IC50 (second compound 0.0949 µM) of under 31.6 nM and an IC50 (second compound 0.3 µM) of under 31.6 nM. For the same molecule, the viability, T/C [1] was 25.9%, the viability, T/C [2] was 26.5% and the viability, T/C [3] was 20.4%. For the same molecule, the viability, T/C [4] was 26.4%, the viability, T/C [25] was 24.6% and the viability, T/C [26] was 16.7%. It also gave a viability, T/C [5] of 21.6%, a viability, T/C [6] of 20.3% and a viability, T/C [7] of 19.4%. For the same molecule, the viability, T/C [8] was 23.7%, the viability, T/C [27] was 23.5% and the viability, T/C [28] was 17.9%. It also gave a viability, T/C [9] of 22.9%, a viability, T/C [10] of 19.8% and a viability, T/C [11] of 24.6%. It also gave a viability, T/C [12] of 22.4%, a viability, T/C [29] of 21% and a viability, T/C [30] of 19.9%. The viability, T/C [13] was 23.9%, the viability, T/C [14] was 20.6% and the viability, T/C [15] was 26.3%. For the same molecule, the viability, T/C [16] was 23.1%, the viability, T/C [31] was 17.4% and the viability, T/C [32] was 21.6%. It also gave a viability, T/C [17] of 21.7%, a viability, T/C [18] of 24% and a viability, T/C [19] of 22.6%. The viability, T/C [20] was 24.4%, the viability, T/C [33] was 21.2% and the viability, T/C [34] was 22.2%. The viability, T/C [21] was 22.6%, the viability, T/C [22] was 26% and the viability, T/C [23] was 23.2%. It also gave a viability, T/C [24] of 25.1%, a viability, T/C [35] of 21.9% and a viability, T/C [36] of 20.1%.

Work on `Cc1nc(N2CCC3(CC2)COC(C)C3N)c(CO)nc1Sc1ccnc(N)c1Cl` (stereo unspecified) + CCn1c(-c2cccnc2C(C)OC)c2c3cc(ccc31)N1CCOC(CC(NC(=O)C(C(C)C)N(C)C(=O)C3(F)CCN(C(=O)C#CC(C)(C)N(C)C)CC3)C(=O)N3CCCC(N3)C(=O)OCC(C)(C)C2)C1 yielded an IC50 (second compound 0.000949 µM) of under 31.6 nM, an IC50 (second compound 0.003 µM) of under 31.6 nM and an IC50 (second compound 0.00949 µM) of under 31.6 nM. It also gave an IC50 (second compound 0.03 µM) of under 31.6 nM, an IC50 (second compound 0.0949 µM) of under 31.6 nM and an IC50 (second compound 0.3 µM) of under 31.6 nM. For the same molecule, the viability, T/C [1] was 21.6%, the viability, T/C [2] was 20.3% and the viability, T/C [3] was 13.3%. For the same molecule, the viability, T/C [4] was 18.1%, the viability, T/C [25] was 19.1% and the viability, T/C [26] was 14.4%. For the same molecule, the viability, T/C [5] was 21.7%, the viability, T/C [6] was 20.4% and the viability, T/C [7] was 14.2%. For the same molecule, the viability, T/C [8] was 17.5%, the viability, T/C [27] was 18.1% and the viability, T/C [28] was 13.7%. The viability, T/C [9] was 20.1%, the viability, T/C [10] was 16.8% and the viability, T/C [11] was 16.8%. It also gave a viability, T/C [12] of 18.4%, a viability, T/C [29] of 15.7% and a viability, T/C [30] of 15.6%. It also gave a viability, T/C [13] of 19.7%, a viability, T/C [14] of 19% and a viability, T/C [15] of 17.5%. It also gave a viability, T/C [16] of 15.7%, a viability, T/C [31] of 13.1% and a viability, T/C [32] of 17.6%. The viability, T/C [17] was 21.4%, the viability, T/C [18] was 20.7% and the viability, T/C [19] was 19.9%. It also gave a viability, T/C [20] of 17.3%, a viability, T/C [33] of 15.2% and a viability, T/C [34] of 19.6%. For the same molecule, the viability, T/C [21] was 22.1%, the viability, T/C [22] was 20.9% and the viability, T/C [23] was 20.6%. The viability, T/C [24] was 18.3%, the viability, T/C [35] was 18.8% and the viability, T/C [36] was 23.2%.
